Assay [1] deals with 4T1 cells. The assay is described as follows: Transwell (Boyden chamber) migration assay, serum-induced. To be noted: FIG. 3A. It counts as cell-based, mouse. Here is the method:
Migration Assay. 4T1 cells were trypsinized for 5 min, washed, and suspended in 0.2% FBS-supplemented RPMI 1640 medium. Five×10^4 cells in 0.5 ml of 0.2% FBS-supplemented RPMI medium containing individual test agents at the indicated concentrations were added to the upper chamber (i.e., insert) of each Transwell system (12 mm, polycarbonate, 12-μm pore, Millipore) in a 24-well plate, and incubated at 37° C. in a CO2 incubator for 30 min. The inserts were then switched to a new well containing 10% FBS-supplemented RPMI 1640 medium for 24 h. All cells in each well were fixed with 10% formalin followed by staining with 0.5% crystal violet. To quantify migrated cells, cells attached to the bottom side of the upper chamber and in the bottom of the well were wiped with a moistened cotton swab, which was then rinsed with 80 μl DDW. The cells were then dissolved by the addition of 320 μl 100% methanol. Enumeration of non-migrated cells was done by placing the chamber into 400 μl of 80% methanol, and incubating for 30 min in an orbital shaker. Absorbance at 570 nm was measured in an ELISA plate reader. Percentage of cell migration in each well was calculated using the following equation: % of migration=100×[(O.D. of migrated cells)−(O.D. of background)]/{[(O.D. of migrated cells)−(O.D. of background)]+[(O.D. of non-migrated cells)−(O.D. of background)]}. The migration activity in each treatment group is expressed as a percentage of that in the vehicle controls, which was considered to be 100%.

Assay [2] deals with 4T1 metastatic breast cancer cells. The assay is described as follows: Adhesion assay: 4T1 cell adhesion to a Matrigel-coated surface. To be noted: for anti-adhesion potency (in words) / anti-adhesion activity relative to VES (FIG. 2A, in words): 4T1 cells, Matrigel-coated surface; for anti-adhesion activity relative to VES (FIG. 2A, in words): each at 5 μM. It counts as cell-based, mouse. On the procedure:
Adhesion Assay. Ninety six-well plates were coated with 12% (v/v) Matrigel (BD Biosciences) at 37° C. for 1 hour, washed twice with washing buffer (0.1% BSA-containing RPMI medium) followed by blocking with 0.5% BSA-containing RPMI medium at 37° C. for 60 minutes. 4T1 cells were treated with individual derivatives at the indicated concentrations at 37° C. in a CO2 incubator for 60 minutes, and 2×10^4 cells in 100 μl were seeded in each well. Cells were allowed to adhere to the Matrigel-coated surface for 30 min at 37° C., and nonadherent cells were removed by gentle washing with the aforementioned washing buffer. Adherent cells were fixed with 10% formalin, stained with 0.5% crystal violet, and dissolved in 2% SDS. Absorbance at 570 nm was measured in an ELISA plate reader (Molecular device, Sunnyvale, Calif.).

The test system of assay [3] is 4T1 cells. Kind of assay: F-actin immunostaining (actin cytoskeletal structure). It is filed as cell-based, mouse. To be noted: for reduction in the fluorescent intensity of F-actin relative to the DMSO control: 4 h, 4T1 cells; for effect on actin cytoskeleton (stress fibers, lamellipodia; in words): 4 hours of exposure, FIG. 3B. Here is the method:
F-actin Immunostaining To assess the effect of test compounds on actin cytoskeletal structures, cells were seeded onto coverslips in six-well plates and incubated overnight, followed by exposure to individual agents at the indicated concentrations for 4 h in 2% FBS-containing RPMI 1640 medium. Cells were then fixed in 3.7% formaldehyde, permeabilized with PBS containing 0.1% Triton X-100 and 0.1% BSA for 1 h, and then incubated with Alexa Fluor 488 phallotoxin staining solution (Molecular Probes, Inc., Eugene, Oreg.) for 30 min. Nuclear counterstaining was achieved by use of 4,6-diamidino-2-phenylindole (DAPI)-containing mounting medium. Immunocytochemically labeled cells were visualized and images captured using a Zeiss microscope (LSM510) with Argon and HeNe lasers, appropriate filters (excitation wavelengths were 488 nm and 543 nm), and a 63×1.4 numerical aperture water immersion lens. Differences in fluorescence intensity were calculated from comparisons of the control sample with each of the treatment samples under the same threshold using MacBiophotonic ImageJ software (National Institutes of Health) and were expressed as percentages of the fluorescent intensity of the untreated control. Statistical significance was evaluated using Student's t-test and considered significant at P<0.05.

Assay [4] concerns focal adhesion kinase (FAK). The assay is described as follows: FAK protein stability by Western blotting. It counts as cell-based, mouse. To be noted: each at 5 μM, 4T1 cells, 1 h. On the procedure:
(§1) VES derivatives target focal adhesion kinase (FAK) degradation. Considering the important role of FAK in regulating the formation of focal adhesions and actin stress fibers (McLean et al., Nat Rev Cancer 5, 505-15 (2005)), the effect of compound 2 on focal adhesion sites in 4T1 cells was assessed by immunostaining with anti-FAK antibodies, the results of which are shown in FIG. 4A. […] It is noteworthy that the disruption of actin stress fibers and focal adhesion by compound 2 is reminiscent of that induced by mannitol in neuroblastoma cells. Kim et al. J Biol Chem 277, 27393-400 (2002). As mannitol-induced cytoskeletal changes were preceded by the degradation of FAK, the effects of compound 2 relative to VES, TS-1, and compounds 1 and 3, each at 5 μM, on FAK protein stability in 4T1 cells was investigated by Western blotting.
(In general: In western blotting, separated proteins are transferred to a membrane and probed.)

For assay [5], the system named is focal adhesion kinase (FAK). Kind of assay: Focal adhesion sites by immunostaining with anti-FAK antibody. It counts as cell-based, mouse. To be noted: 2.5 μM, 1 h, 4T1 cells. On the procedure: as §1
The subject of a further assay is breast tumor. To be noted: animal models; Hahn et al. 2006; cited from earlier work.
Where [6] appears, read: Mus musculus, 4T1, adhesion to Matrigel-coated surface, FIG. 2B, read-out: IC50, inhibiting 4T1 cell adhesion.

SMILES strings stand for the structures. Entries after “also recorded” stand apart in the source; their conditions may differ. Read-outs that look alike come from different tables or passages of the source.

A word on the IC50: it is the concentration that gives 50% inhibition. For the compound `Cc1c(C)c2c(c(C)c1OC(=O)CCC(=O)O)CCC(C)(C=CCC(C)CCCC(C)C)O2` (stereo not shown) [compound 1, Succinic acid mono-[2-(4,8-dimethyl-non-1-enyl)-2,5,7,8-tetramethyl-chroman-6-yl]ester], the “inhibition of serum-induced 4T1 cell migration (in words)” value (“inhibition” below) with 4T1 cells [1] (5 μM) is listed as “effective in inhibiting cell migration”. Further, in assay [2], the “anti-adhesion potency (in words)” value is listed as “multifold improvement in the anti-adhesion potency”. In addition, in assay [2] (setting [6]), the IC50 is 1300 nM.

`Cc1c(C)c2c(c(C)c1OCC(=O)O)CCC(C)(C=CCC(C)CCCC(C)C)O2` (stereo not shown) [compound 2, [2-(4,8-Dimethyl-non-1-enyl)-2,5,7,8-tetramethyl-chroman-6-yloxy]-acetic acid]: the “inhibition” value with 4T1 cells [1] (5 μM) is listed as “effective in inhibiting cell migration”. In addition, the “reduction in the fluorescent intensity of F-actin relative to the DMSO control” value in the assay with 4T1 cells [3] (5 μM) stood at 84%. Moreover, in the assay with 4T1 cells [3] (5 μM), the “effect on actin cytoskeleton (stress fibers, lamellipodia; in words)” value is “rapid dissolution of stress fiber and impairment of lamellipodia formation”. Moreover, the “FAK degradation (in words)” value in assay [4] is given as “induced FAK degradation”. In addition, the “effect on focal adhesion sites (FAK punctate staining; in words)” value in assay [5] is “loss of focal adhesion sites; also recorded: no longer detectable”. Also, the IC50 in assay [2] (setting [6]) came out at 600 nM; in assay [2] (Mus musculus, 4T1, summary statement b23, read-out: IC50, blocking the adhesion of 4T1 metastatic breast cancer cells), 600 nM.

For the compound `Cc1c(C)c2c(c(C)c1OCC(=O)O)CCC(C)(CCCC(C)CCCC(C)C)O2` (stereo not shown) [compound 3, [2-(4,8-Dimethyl-nonyl)-2,5,7,8-tetramethyl-chroman-6-yloxy]-acetic acid], the “inhibition” value with 4T1 cells [1] (5 μM) was “effective in inhibiting cell migration”. Also, in the assay with 4T1 cells [3] (10 μM), the “reduction in the fluorescent intensity of F-actin relative to the DMSO control” value was 70%; the “effect on actin cytoskeleton (stress fibers, lamellipodia; in words)” value was “rapid dissolution of stress fiber and impairment of lamellipodia formation”. Also, in assay [2] (setting [6]), the half-inhibitory concentration (IC50) is 2000 nM.

Turning to `Cc1c(C)c2c(c(C)c1OCC(=O)O)CCC(C)(CCCC(C)CCCC(C)CCCC(C)C)O2` (stereo not drawn) [α-tocopheryloxyacetic acid], in the assay on breast tumor, the “effect on breast tumor growth and lung metastasis (in words)” value is “suppress breast tumor growth and to reduce lung metastasis”.

In the case of `Cc1c(C)c2c(c(C)c1OC(=O)CCC(=O)O)CC[C@@](C)(CCC[C@H](C)CCC[C@H](C)CCCC(C)C)O2` [VES, α-tocopheryl succinate, reference compound], the “inhibition” value in the assay with 4T1 cells [1] (50 μM) is listed as “little effect”. The “FAK degradation (in words)” value in assay [4] was “less evident or not appreciable”. The “anti-adhesion potency (in words)” value in assay [2] is on record as “modest inhibitory effect”.

For the compound `Cc1c(C)c2c(c(C)c1OC(=O)CCC(=O)O)CCC(C)(CCCC(C)C)O2` (stereo not shown) [TS-2], in assay [2], the “anti-adhesion potency (in words)” value is “substantially improved potency vis-à-vis VES” and the “anti-adhesion activity relative to VES (FIG. 2A, in words)” value is “to a lesser extent”.

As for `Cc1c(C)c2c(c(C)c1OC(=O)CCC(=O)O)CCC(C)(CCCC(C)CCCC(C)C)O2` (stereo not shown) [TS-1], the “inhibition” value with 4T1 cells [1] (5 μM) was “little effect”. Besides, in assay [4], the “FAK degradation (in words)” value is “less evident or not appreciable”. In addition, in assay [2], the “anti-adhesion potency (in words)” value was “substantially improved potency vis-à-vis VES” and the “anti-adhesion activity relative to VES (FIG. 2A, in words)” value was “significantly improved potencies”. Also, the IC50 in assay [2] (adhesion to Matrigel-coated surface, FIG. 2B, read-out: IC50, inhibiting 4T1 cell adhesion) was determined as 2500 nM.

The values above are taken from patent US8362071B2, “Antiadhesion agents” (The Ohio State University Research Foundation, priority 2009, dated 2013).
